This note sets out measurements from paper PMC5218480 (PLoS ONE, 2017).

In the assay the test system is MV-4-11 cells. The assay is described as follows: Gene expression microarray analysis (Affymetrix PrimeView) and GSEA. It counts as cell-based, human. More on the design: RFU PODN (11730768_x_at) / Fold change /veh PODN (11730768_x_at) / RFU LINC00158 (11744669_a_at) / Fold change /veh LINC00158 (11744669_a_at) / RFU DUSP10 (11751237_a_at) / Fold change /veh DUSP10 (11751237_a_at) / RFU ID3 (11757404_x_at) / Fold change /veh ID3 (11757404_x_at) / RFU PLEKHG5 (11737974_s_at) / Fold change /veh PLEKHG5 (11737974_s_at) / RFU LRRC4B (11730491_at) / Fold change /veh LRRC4B (11730491_at) / RFU GIMAP4 (11747438_a_at) / Fold change /veh GIMAP4 (11747438_a_at) / RFU KRT8 (11758183_x_at) / Fold change /veh KRT8 (11758183_x_at) / RFU CNN1 (11734310_a_at) / Fold change /veh CNN1 (11734310_a_at) / RFU VPS37D (11726825_at) / Fold change /veh VPS37D (11726825_at) / RFU C10orf10 (11716522_x_at) / Fold change /veh C10orf10 (11716522_x_at) / RFU KIR2DL2 /// KIR2DL4 /// KIR2DL5A /// KIR2DL5B /// KIR2DS1 /// KIR2DS2 /// KIR2DS3 /// KIR2DS4 /// KIR3DL3 /// KIR3DL3 /// KIR3DS1 (11738374_at) / Fold change /veh KIR2DL2 /// KIR2DL4 /// KIR2DL5A /// KIR2DL5B /// KIR2DS1 /// KIR2DS2 /// KIR2DS3 /// KIR2DS4 /// KIR3DL3 /// KIR3DL3 /// KIR3DS1 (11738374_at) / RFU C1QL1 (11718748_at) / Fold change /veh C1QL1 (11718748_at) / RFU TMPRSS4 (11747572_a_at) / Fold change /veh TMPRSS4 (11747572_a_at) / RFU HAMP (11756126_x_at) / Fold change /veh HAMP (11756126_x_at) / RFU RNFT2 (11725882_a_at) / Fold change /veh RNFT2 (11725882_a_at) / RFU NR4A2 (11747474_a_at) / Fold change /veh NR4A2 (11747474_a_at) / RFU ABCC12 (11746883_a_at) / Fold change /veh ABCC12 (11746883_a_at) / RFU TMEM136 (11760407_x_at) / Fold change /veh TMEM136 (11760407_x_at) / RFU CLDN22 /// WWC2 (11732394_at) / Fold change /veh CLDN22 /// WWC2 (11732394_at) / RFU HLA-DPB1 (11760878_x_at) / Fold change /veh HLA-DPB1 (11760878_x_at) / RFU SPINT1 (11716480_a_at) / Fold change /veh SPINT1 (11716480_a_at) / RFU GAP43 (11754022_s_at) / Fold change /veh GAP43 (11754022_s_at) / RFU A4GNT (11735810_at) / Fold change /veh A4GNT (11735810_at) / RFU PRB3 (11715151_x_at) / Fold change /veh PRB3 (11715151_x_at) / RFU TUBB4B (11761932_at) / Fold change /veh TUBB4B (11761932_at) / RFU CAPN14 (11732068_a_at) / Fold change /veh CAPN14 (11732068_a_at) / RFU TMCC2 (11721928_a_at) / Fold change /veh TMCC2 (11721928_a_at) / RFU IRGQ (11745062_a_at) / Fold change /veh IRGQ (11745062_a_at) / RFU FAM174B (11720279_a_at) / Fold change /veh FAM174B (11720279_a_at) / RFU TMPRSS4 (11748680_a_at) / Fold change /veh TMPRSS4 (11748680_a_at) / RFU FAM212B (11763350_a_at) / Fold change /veh FAM212B (11763350_a_at) / RFU PLEKHG5 (11743358_a_at) / Fold change /veh PLEKHG5 (11743358_a_at) / RFU ZSCAN30 (11745921_a_at) / Fold change /veh ZSCAN30 (11745921_a_at) / RFU CMKLR1 (11741424_a_at) / Fold change /veh CMKLR1 (11741424_a_at) / RFU LOC101060620 /// MAPK8IP1 (11723275_at) / Fold change /veh LOC101060620 /// MAPK8IP1 (11723275_at) / RFU SPTSSB (11747773_x_at) / Fold change /veh SPTSSB (11747773_x_at) / RFU PRSS12 (11739890_at) / Fold change /veh PRSS12 (11739890_at) / RFU BIN1 (11741810_x_at) / Fold change /veh BIN1 (11741810_x_at) / RFU WNT11 (11732464_a_at) / Fold change /veh WNT11 (11732464_a_at) / RFU C10orf10 (11716521_a_at) / Fold change /veh C10orf10 (11716521_a_at) / RFU C5orf56 (11738089_at) / Fold change /veh C5orf56 (11738089_at) / RFU CYB561 (11721691_x_at) / Fold change /veh CYB561 (11721691_x_at) / RFU ANKRD19P (11752326_a_at) / Fold change /veh ANKRD19P (11752326_a_at) / RFU OR2T12 /// OR2T33 /// OR2T8 (11738714_s_at) / Fold change /veh OR2T12 /// OR2T33 /// OR2T8 (11738714_s_at) / RFU VCAN (11748164_a_at) / Fold change /veh VCAN (11748164_a_at) / RFU JSRP1 (11732532_at) / Fold change /veh JSRP1 (11732532_at) / RFU KRTAP10-11 (11738290_x_at) / Fold change /veh KRTAP10-11 (11738290_x_at) / RFU MYO3A (11730013_a_at) / Fold change /veh MYO3A (11730013_a_at) / RFU EBF3 (11725865_a_at) / Fold change /veh EBF3 (11725865_a_at) / RFU CAMK2N1 (11719241_x_at) / Fold change /veh CAMK2N1 (11719241_x_at) / RFU C5orf56 (11738088_a_at) / Fold change /veh C5orf56 (11738088_a_at) / RFU OLFML3 (11715873_a_at) / Fold change /veh OLFML3 (11715873_a_at) / RFU LOC100653217 /// NTM (11731650_a_at) / Fold change /veh LOC100653217 /// NTM (11731650_a_at) / RFU MAPK11 (11762145_a_at) / Fold change /veh MAPK11 (11762145_a_at) / RFU FIZ1 (11724087_x_at) / Fold change /veh FIZ1 (11724087_x_at) / RFU OASL (11726364_x_at) / Fold change /veh OASL (11726364_x_at) / RFU SOX15 (11748057_x_at) / Fold change /veh SOX15 (11748057_x_at) / RFU CD79A (11719716_a_at) / Fold change /veh CD79A (11719716_a_at) / RFU HIST1H1D (11736915_at) / Fold change /veh HIST1H1D (11736915_at) / RFU CASKIN2 (11723855_a_at) / Fold change /veh CASKIN2 (11723855_a_at) / RFU LOC730098 (11760151_x_at) / Fold change /veh LOC730098 (11760151_x_at) / RFU OR4N2 (11742367_at) / Fold change /veh OR4N2 (11742367_at) / RFU PRRT2 (11749266_a_at) / Fold change /veh PRRT2 (11749266_a_at) / RFU SNX32 (11753110_a_at) / Fold change /veh SNX32 (11753110_a_at) / RFU CDHR5 (11726645_a_at) / Fold change /veh CDHR5 (11726645_a_at) / RFU RCAN1 (11760418_a_at) / Fold change /veh RCAN1 (11760418_a_at) / RFU FAM167A (11723789_a_at) / Fold change /veh FAM167A (11723789_a_at) / RFU FAM26E (11764081_at) / Fold change /veh FAM26E (11764081_at) / RFU ISYNA1 (11749810_s_at) / Fold change /veh ISYNA1 (11749810_s_at) / RFU ACY1 (11761880_at) / Fold change /veh ACY1 (11761880_at) / RFU 11764098_at / Fold change /veh 11764098_at / RFU SAMD14 (11745864_x_at) / Fold change /veh SAMD14 (11745864_x_at) / RFU NPB (11741838_a_at) / Fold change /veh NPB (11741838_a_at) / RFU TMPRSS6 (11731388_a_at) / Fold change /veh TMPRSS6 (11731388_a_at) / RFU KRTAP10-2 (11738614_at) / Fold change /veh KRTAP10-2 (11738614_at) / RFU ARHGAP8 /// PRR5-ARHGAP8 (11727945_x_at) / Fold change /veh ARHGAP8 /// PRR5-ARHGAP8 (11727945_x_at) / RFU KRTAP5-7 /// NADSYN1 (11734609_at) / Fold change /veh KRTAP5-7 /// NADSYN1 (11734609_at) / RFU RASL12 (11751679_a_at) / Fold change /veh RASL12 (11751679_a_at) / RFU CDKN2B (11736163_a_at) / Fold change /veh CDKN2B (11736163_a_at) / RFU PRF1 (11729649_at) / Fold change /veh PRF1 (11729649_at) / RFU, ZNF638 /// ZNF638-IT1 / Fold change vs veh, ZNF638 /// ZNF638-IT1 / RFU, PANK3 / Fold change vs veh, PANK3 / RFU, SH3YL1 / Fold change vs veh, SH3YL1 / RFU, ZEB2 / Fold change vs veh, ZEB2 / RFU, NRIP1 / Fold change vs veh, NRIP1 / RFU, PTTG1IP / Fold change vs veh, PTTG1IP / RFU, CAPN2 / Fold change vs veh, CAPN2 / RFU, MED14 / Fold change vs veh, MED14 / RFU, SNORA58 / Fold change vs veh, SNORA58 / RFU, C1orf63 / Fold change vs veh, C1orf63 / RFU, LRRFIP1 / Fold change vs veh, LRRFIP1 / RFU, NDUFAF7 / Fold change vs veh, NDUFAF7 / RFU, SLC12A2 / Fold change vs veh, SLC12A2 / RFU, IBTK / Fold change vs veh, IBTK / RFU, ESF1 / Fold change vs veh, ESF1 / Fold change vs veh, TMEM50B / RFU, TAOK1 / Fold change vs veh, TAOK1 / RFU, ACBD3 / Fold change vs veh, ACBD3 / RFU, TMA16 / Fold change vs veh, TMA16 / RFU, RWDD3 / Fold change vs veh, RWDD3 / RFU, BCAT1 / Fold change vs veh, BCAT1 / RFU, EDEM3 / Fold change vs veh, EDEM3 / RFU, TMEM33 / Fold change vs veh, TMEM33 / RFU, WDR75 / Fold change vs veh, WDR75 / RFU, AHCTF1 / Fold change vs veh, AHCTF1 / RFU, TFRC / Fold change vs veh, TFRC / RFU, ZDHHC17 / Fold change vs veh, ZDHHC17 / RFU, NOM1 / Fold change vs veh, NOM1 / RFU, ARL8B / Fold change vs veh, ARL8B / RFU, ZBTB11 / Fold change vs veh, ZBTB11 / RFU, TAMM41 / Fold change vs veh, TAMM41 / RFU, KIAA1704 /// LOC100996395 / Fold change vs veh, KIAA1704 /// LOC100996395 / RFU, ING1 / Fold change vs veh, ING1 / RFU, TRMT61B / Fold change vs veh, TRMT61B / RFU, FUBP3 / Fold change vs veh, FUBP3 / RFU, TP53 / Fold change vs veh, TP53 / RFU, TNKS2 / Fold change vs veh, TNKS2 / RFU, ZFP14 / Fold change vs veh, ZFP14 / RFU, ACTR2 / Fold change vs veh, ACTR2 / RFU, PPP3R1 / Fold change vs veh, PPP3R1 / RFU, PIK3R1 / Fold change vs veh, PIK3R1 / RFU, HNRNPA1 / Fold change vs veh, HNRNPA1 / RFU, RNF170 / Fold change vs veh, RNF170 / RFU, ZNF28 / Fold change vs veh, ZNF28 / RFU, RNGTT / Fold change vs veh, RNGTT / RFU, OGT / Fold change vs veh, OGT / RFU, BRD1 / Fold change vs veh, BRD1 / RFU, MARS / Fold change vs veh, MARS / RFU, ZNF655 / Fold change vs veh, ZNF655 / RFU, FAHD1 / Fold change vs veh, FAHD1 / RFU, BDP1 / Fold change vs veh, BDP1 / RFU, LRRCC1 / Fold change vs veh, LRRCC1 / RFU, ARID1A / Fold change vs veh, ARID1A / RFU, ZNF146 / Fold change vs veh, ZNF146 / RFU, ZNF330 / Fold change vs veh, ZNF330 / RFU, GPN3 / Fold change vs veh, GPN3 / RFU, C9orf123 / Fold change vs veh, C9orf123 / RFU, N4BP2L2 / Fold change vs veh, N4BP2L2 / RFU, ARFIP1 / Fold change vs veh, ARFIP1 / RFU, FAM179B / Fold change vs veh, FAM179B / RFU, BCL10 / Fold change vs veh, BCL10 / RFU, UHRF1BP1L / Fold change vs veh, UHRF1BP1L / RFU, BET1 / Fold change vs veh, BET1 / RFU, CNOT2 / Fold change vs veh, CNOT2 / RFU, ZNF268 / Fold change vs veh, ZNF268 / Fold change vs veh, ZNF507 / RFU, DGCR2 / Fold change vs veh, DGCR2 / RFU, WDSUB1 / Fold change vs veh, WDSUB1 / Fold change vs veh, HSP90B1 /// MIR3652 / RFU, ADSS / Fold change vs veh, ADSS / RFU, GK / Fold change vs veh, GK / RFU, ZNF148 / Fold change vs veh, ZNF148 / RFU, TAF9 / Fold change vs veh, TAF9 / RFU, SLC1A5 / Fold change vs veh, SLC1A5 / RFU, SLMO2 / Fold change vs veh, SLMO2 / RFU, ABCC4 / Fold change vs veh, ABCC4 / RFU, LOC101060439 /// RAP1B / Fold change vs veh, LOC101060439 /// RAP1B / RFU, RFX7 / Fold change vs veh, RFX7 / RFU, GTPBP10 / Fold change vs veh, GTPBP10 / RFU, CNEP1R1 / Fold change vs veh, CNEP1R1 / RFU, BIVM-ERCC5 /// ERCC5 / Fold change vs veh, BIVM-ERCC5 /// ERCC5 / RFU, ILF3 / Fold change vs veh, ILF3 / RFU 11762660_at / Fold change /veh 11762660_at / RFU VCAN (11757783_s_at) / Fold change /veh VCAN (11757783_s_at) / RFU DDX43 (11728927_at) / Fold change /veh DDX43 (11728927_at) / RFU KRT8 (11758188_x_at) / Fold change /veh KRT8 (11758188_x_at) / RFU NKD1 (11759106_at) / Fold change /veh NKD1 (11759106_at) / RFU SRD5A1 (11742802_a_at) / Fold change /veh SRD5A1 (11742802_a_at) / RFU TPSAB1 /// TPSB2 (11721975_s_at) / Fold change /veh TPSAB1 /// TPSB2 (11721975_s_at) / RFU GSTM3 (11746129_a_at) / Fold change /veh GSTM3 (11746129_a_at) / RFU IL23R (11737362_x_at) / Fold change /veh IL23R (11737362_x_at) / RFU TMEM51 (11727254_a_at) / Fold change /veh TMEM51 (11727254_a_at) / RFU PIWIL2 (11732686_x_at) / Fold change /veh PIWIL2 (11732686_x_at) / RFU ORM1 (11744905_x_at) / Fold change /veh ORM1 (11744905_x_at) / RFU CCDC152 (11743942_at) / Fold change /veh CCDC152 (11743942_at) / RFU ECM1 (11717891_a_at) / Fold change /veh ECM1 (11717891_a_at) / RFU IL23R (11748794_a_at) / Fold change /veh IL23R (11748794_a_at) / RFU TNFAIP8L3 (11732012_x_at) / Fold change /veh TNFAIP8L3 (11732012_x_at) / RFU MBOAT4 (11741988_at) / Fold change /veh MBOAT4 (11741988_at) / RFU 11764193_at / Fold change /veh 11764193_at / RFU TMEM53 (11763286_at) / Fold change /veh TMEM53 (11763286_at) / RFU MAGEB2 (11727129_at) / Fold change /veh MAGEB2 (11727129_at) / RFU TMEM200A (11744735_a_at) / Fold change /veh TMEM200A (11744735_a_at) / RFU CCDC152 (11751479_a_at) / Fold change /veh CCDC152 (11751479_a_at) / RFU FAM211A (11726209_a_at) / Fold change /veh FAM211A (11726209_a_at) / RFU RGS16 (11746705_a_at) / Fold change /veh RGS16 (11746705_a_at) / RFU VCAN (11755009_s_at) / Fold change /veh VCAN (11755009_s_at) / RFU RHOB (11743442_s_at) / Fold change /veh RHOB (11743442_s_at) / RFU RGS16 (11720943_a_at) / Fold change /veh RGS16 (11720943_a_at) / RFU RGS16 (11720944_at) / Fold change /veh RGS16 (11720944_at) / RFU, VPS4B / Fold change vs veh, VPS4B / RFU, CREB1 / Fold change vs veh, CREB1 / RFU, DNAJC13 / Fold change vs veh, DNAJC13 / RFU, GNAQ / Fold change vs veh, GNAQ / RFU, CDK5R1 / Fold change vs veh, CDK5R1 / RFU, ZRANB3 / Fold change vs veh, ZRANB3 / RFU, CUL4A / Fold change vs veh, CUL4A / RFU, CCNY / Fold change vs veh, CCNY / RFU, UFL1 / Fold change vs veh, UFL1 / RFU, COG3 / Fold change vs veh, COG3 / RFU, DIAPH2 / Fold change vs veh, DIAPH2 / RFU, SKA2 / Fold change vs veh, SKA2 / RFU, AFF3 / Fold change vs veh, AFF3 / RFU, LMF1 / Fold change vs veh, LMF1 / RFU, IPO11 / Fold change vs veh, IPO11 / RFU, DFFB / Fold change vs veh, DFFB / RFU, FOXP1 / Fold change vs veh, FOXP1 / RFU, CARD8 / Fold change vs veh, CARD8 / RFU, STRN3 / Fold change vs veh, STRN3 / RFU, ADK / Fold change vs veh, ADK / RFU, RASSF2 / Fold change vs veh, RASSF2 / RFU, WIPF1 / Fold change vs veh, WIPF1 / RFU, LARP1B / Fold change vs veh, LARP1B / RFU, RASA1 / Fold change vs veh, RASA1 / RFU, RB1 / Fold change vs veh, RB1 / RFU, PPFIA1 / Fold change vs veh, PPFIA1 / RFU, MAT2A / Fold change vs veh, MAT2A / RFU, CCT5 / Fold change vs veh, CCT5 / RFU, WDR92 / Fold change vs veh, WDR92 / RFU, CUX1 / Fold change vs veh, CUX1 / RFU, TTC7A / Fold change vs veh, TTC7A / RFU, TMEM135 / Fold change vs veh, TMEM135 / RFU, DEPTOR / Fold change vs veh, DEPTOR / RFU, CPM / Fold change vs veh, CPM / RFU, DNAJB6 / Fold change vs veh, DNAJB6 / RFU, CACNA2D3 / Fold change vs veh, CACNA2D3 / RFU, DTX4 / Fold change vs veh, DTX4 / RFU, TFCP2 / Fold change vs veh, TFCP2 / RFU, GMCL1 /// GMCL1P1 / Fold change vs veh, GMCL1 /// GMCL1P1 / RFU, AEBP2 / Fold change vs veh, AEBP2 / RFU, SNHG1 /// SNORD22 /// SNORD25 /// SNORD26 /// SNORD27 /// SNORD28 /// SNORD29 /// SNORD31 / Fold change vs veh, SNHG1 /// SNORD22 /// SNORD25 /// SNORD26 /// SNORD27 /// SNORD28 /// SNORD29 /// SNORD31 / Fold change (Aza/veh), C12orf56 (ProbeSet 11735607_a_at) / Fold change (ACY-1035/veh), C12orf56 (ProbeSet 11735607_a_at) / Fold change (Aza/veh), FGFR1OP (ProbeSet 11751329_s_at) / Fold change (ACY-1035/veh), FGFR1OP (ProbeSet 11751329_s_at) / Fold change (Aza/veh), VPS36 (ProbeSet 11739960_a_at) / Fold change (ACY-1035/veh), VPS36 (ProbeSet 11739960_a_at) / RFU SYPL1 (11715823_x_at) / Fold change /veh SYPL1 (11715823_x_at) / RFU IGFBP7 (11715501_s_at) / Fold change /veh IGFBP7 (11715501_s_at) / RFU REEP3 (11722064_at) / Fold change /veh REEP3 (11722064_at) / RFU IGLL1 (11728026_x_at) / Fold change /veh IGLL1 (11728026_x_at): dose or concentration left out as unconfirmed. The settings on record: MV-4-11 cells, 48 hours.

For the compound `Nc1ncn([C@@H]2O[C@H](CO)[C@@H](O)[C@H]2O)c(=O)n1` [azacitidine], the “Fold change /veh CD79A (11719716_a_at)” value amounted to 0.94.
